Like-named read-outs stand apart in the source and are kept apart here.
Key:
MOLM14 D835Y cells = assay: MOLM14 D835Y cell viability assay (Cell Titer Glo); assay type: cell-based
NF-κB = assay: NF-kB assay in THP-1-Blue NF-κB cells (SEAP reporter); assay type: cell-based
Method: THP-1-Blue NF-κB cells (InvivoGen) carrying a stable integrated NF-κB-inducible secreted embryonic alkaline phosphatase (SEAP) reporter construct were plated at a concentration of 1×10^5 cells per well. The cells were stimulated with Pam3CSK4 (1 ng/mL) or hIL1B (Ing/mL). After 10-20 minutes, the cells were then treated with vehicle (DMSO) or serial dilutions of the test compounds (10 doses tested for each test compound, with a 1:10 dilution series starting at 1 μM or 3 μM) with a final volume of 200 μL for 24 hours at 37° C. After 24 hours, the cells were centrifuged and 20 IL supernatant was incubated with 180 μL QUANTI-Blue reagent at 37° C. for 30-60 minutes. The levels of NF-κB-induced was measured in a microplate reader at 620 nm.

FLT3 = target: T1, FLT3 (Homo sapiens, UniProt P36888); assay: DiscoverX KINOMEscan competition binding, FLT3; set-up: purchased RBC (Reaction Biology) HotSpot assay; settings: no ATP
T1 sequence (P36888 27-993): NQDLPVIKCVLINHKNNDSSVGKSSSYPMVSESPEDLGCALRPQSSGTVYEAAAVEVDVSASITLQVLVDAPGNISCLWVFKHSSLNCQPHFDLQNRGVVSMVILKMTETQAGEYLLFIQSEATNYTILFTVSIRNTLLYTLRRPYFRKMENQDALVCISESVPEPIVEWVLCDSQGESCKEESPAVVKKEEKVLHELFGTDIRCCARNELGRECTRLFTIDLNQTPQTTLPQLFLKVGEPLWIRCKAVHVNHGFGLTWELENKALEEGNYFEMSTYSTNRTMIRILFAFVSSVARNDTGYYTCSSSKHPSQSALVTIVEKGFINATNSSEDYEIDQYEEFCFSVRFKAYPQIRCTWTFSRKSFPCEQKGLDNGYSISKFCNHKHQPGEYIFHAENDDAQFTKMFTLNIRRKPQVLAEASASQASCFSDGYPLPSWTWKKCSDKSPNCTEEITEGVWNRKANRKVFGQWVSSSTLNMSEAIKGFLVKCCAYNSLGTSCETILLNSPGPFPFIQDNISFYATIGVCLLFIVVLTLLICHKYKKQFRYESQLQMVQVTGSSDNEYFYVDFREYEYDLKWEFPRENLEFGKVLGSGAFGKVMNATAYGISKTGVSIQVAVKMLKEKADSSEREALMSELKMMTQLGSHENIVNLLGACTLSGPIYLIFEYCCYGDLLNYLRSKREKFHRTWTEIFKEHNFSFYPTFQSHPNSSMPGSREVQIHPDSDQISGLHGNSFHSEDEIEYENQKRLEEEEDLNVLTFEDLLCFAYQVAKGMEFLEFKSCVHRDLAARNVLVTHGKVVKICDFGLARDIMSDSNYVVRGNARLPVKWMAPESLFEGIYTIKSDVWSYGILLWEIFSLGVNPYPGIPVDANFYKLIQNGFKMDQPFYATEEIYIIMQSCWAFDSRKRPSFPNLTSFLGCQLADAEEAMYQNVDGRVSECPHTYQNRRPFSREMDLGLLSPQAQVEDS
From the text: Kinase binding data were obtained for various exemplary compounds prepared according to Examples 2-15 using the DiscoverX KINOMEscan® active site-directed competition binding site-directed assay protocol described below. […] As a result, the data report thermodynamic interaction affinities (Kd values), rather than IC50 values that are dependent on ATP concentrations. The assay uses a DNA-tagged version of the protein kinase, and an immobilized ligand bound to a solid support. Compounds that directly or indirectly prevent kinase binding to the immobilized ligand reduce the amount of kinase captured on the solid support, which is detected using an ultra-sensitive qPCR method. Affinity constants reported from the assay have been reported to be independent of the immobilized ligand used that is coupled to the solid support (See supplemental information in Fabian, M. A. et. al., (2005) Nat. […] Wodicka, L. […] Biol. 17, 1241-1249.) Kinase-tagged T7 phage strains were prepared in an E. coli host derived from the BL21 strain. E. coli were grown to log-phase and infected with T7 phage and incubated with shaking at 32° C. until lysis. […] Kds were determined using an 11-point 3-fold compound dilution series with three DMSO control points. […] The kinase concentration in the eluates was measured by qPCR. Binding constants (Kds) were calculated with a standard dose-response curve using the Hill equation. […]

[1] = THP-1-Blue NF-κB cells stimulated with Pam3CSK4, 24 hours, read-out: NF-κB Pam3SCK4 IC50
[2] = THP-1-Blue NF-κB cells stimulated with hIL1B, 24 hours, read-out: NF-κB IL1B IC50

Row | SMILES | IC50 (MOLM14 D835Y cells; 48 hours) [nM] | IC50 (NF-κB; [1]) [nM] | IC50 (NF-κB; [2]) [nM] | IC50 (MOLM14 D835Y cells; Homo sapiens, MOLM-14, 48 h) [nM] | Kd (FLT3) [nM]
1 | COc1cc2ncc(-c3nc(N[C@H]4CNCC[C@@H]4F)c(F)cc3F)n2nc1C(C)(O)C(F)(F)F (single isomer, unassigned) [Compound 77a] | 8 | 166 | 254 | – | –
2 | COc1cc2ncc(-c3nc(N[C@H]4CNC[C@@H]4F)c(F)cc3F)n2nc1C(C)(O)C(F)(F)F (single isomer, unassigned) [Compound 80a] | 23 | – | – | – | –
3 | COc1cc2ncc(-c3nc(N[C@@H]4CCCNC4)c(F)cc3F)n2nc1C(C)(O)C(F)(F)F (single isomer, unassigned) [Compound 81a] | 6 | – | – | – | –
4 | COc1cc2ncc(-c3nc(N[C@H]4CNCC[C@@H]4F)c(F)cc3F)n2nc1C1CCC1 [Compound 15a, 6-(6-cyclobutyl-7-methoxyimidazo[1,2-b]pyridazin-3-yl)-3,5-difluoro-N-((3S,4S)-4-fluoropiperidin-3-yl)pyridin-2-amine] | – | 108 | 136 | 18 | < 0.17
5 | COc1cc2ncc(-c3nc(N[C@H]4CNCC[C@@H]4F)c(F)cc3F)n2nc1C12CC(C1)C2 [Compound 67a, 6-(6-(bicyclo[1.1.1]pentan-1-yl)-7-methoxyimidazo[1,2-b]pyridazin-3-yl)-3,5-difluoro-N-((3S,4S)-4-fluoropiperidin-3-yl)pyridin-2-amine] | – | 284 | 331 | – | –

— patent publication US20250368648A1, “MULTI-CYCLIC IRAK AND FLT3 INHIBITING COMPOUNDS AND USES THEREOF” (CHILDREN'S HOSPITAL MEDICAL CENTER, priority 2022, published 2025)
